Where a name gives a salt, the structure may show the parent alone.

These results are taken from patent US6452001B2, “Diazapane derivatives useful as antagonists of neurokinin 1 receptor and methods for their formation” (Hoffmann-La Roche Inc., priority 2000, dated 2002).

The target in this assay is T1, human NK1 receptor (Homo sapiens, UniProt P25103).
T1 construct: expressed in transfected cells; host or cells: CHO cells infected using the Semliki virus expression system; membrane suspension
T1 sequence (P25103 whole entry): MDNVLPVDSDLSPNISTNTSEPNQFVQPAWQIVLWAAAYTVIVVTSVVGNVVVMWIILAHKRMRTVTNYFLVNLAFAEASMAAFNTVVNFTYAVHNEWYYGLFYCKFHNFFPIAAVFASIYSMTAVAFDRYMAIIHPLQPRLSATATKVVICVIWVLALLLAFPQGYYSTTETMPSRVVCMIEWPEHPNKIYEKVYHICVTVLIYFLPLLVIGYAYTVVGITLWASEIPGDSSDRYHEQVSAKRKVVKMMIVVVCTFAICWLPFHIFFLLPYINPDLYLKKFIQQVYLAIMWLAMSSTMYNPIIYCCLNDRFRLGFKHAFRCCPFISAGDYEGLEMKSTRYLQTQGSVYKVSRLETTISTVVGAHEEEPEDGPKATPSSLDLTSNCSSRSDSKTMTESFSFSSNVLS
As to the kind of experiment: NK1 receptor binding assay, [3H]substance P displacement. As to conditions: affinity to the NK-1 receptor; human NK1 receptors in CHO cells, [3H]substance P 0.6 nM. The protocol:
The affinity of test compounds for the NK1 receptor was evaluated at human NK1 receptors in CHO cells infected with the human NK1 receptor (using the Semliki virus expression system) and radiolabelled with [^3H]substance P (final concentration 0.6 nM). Binding assays were performed in HEPES buffer (50 mM, pH 7.4) containing BSA (0.04 %) leupeptin (8 μg/ml), MnCl2 (3 mM) and phosphoramidon (2 μM). Binding assays consisted of 250 μl of membrane suspension (1.25×10^5 cells/assay tube), […] of buffer of displacing agent and 125 μl of [^3H]substance P. Displacement curves were determined with at least seven concentrations of the compound. The assay tubes were incubated for 60 min at room temperature after which time the tube contents were rapidly filtered under vacuum through GF/C filters presoaked for 60 min with PEI (0.3 %) with 2×2 ml washed of HEPES buffer (50 mM, pH 7.4). The radioactivity retained on the filters was measured by scintillation counting. All assays were performed in triplicate in at least 2 separate experiments.
As to `CCOc1ccc2ccccc2c1CN1CCC(=O)NC(Cc2ccc(Cl)c(Cl)c2)C1=O` (racemic) [Example 17, (RS)-3-(3,4-Dichloro-benzyl)-1-(2-ethoxy-naphthalen-1-yl-methyl)-[1,4]diazepane-2,5-dione], the inhibition constant (Ki) – broadly, the dissociation constant of the complex between target and ligand, obtained from inhibition or displacement – is 5.37 nM.
In the case of `O=C1C(Cc2ccc(Cl)c(Cl)c2)n2cnnc2CCN1Cc1cc(C(F)(F)F)cc(C(F)(F)F)c1` (racemic) [Example 20, (RS)-6-(3,5-Bis-trifluoromethyl-benzyl)-4-(3,4-dichloro-benzyl)-7,8-dihydro-6H-1,2,3a,6-tetraaza-azulen-5-one] it was 2.45 nM; in that of `O=C1C(Cc2ccc(Cl)c(Cl)c2)n2c(CCN3CCOCC3)nnc2CCN1Cc1cc(C(F)(F)F)cc(C(F)(F)F)c1` (racemic) [Example 21, (RS)-6-(3,5-Bis-trifluoromethyl-benzyl)-4-(3,4-dichloro-benzyl)-3-(2-morpholin-4-yl-ethyl)-7,8-dihydro-6H-1,2,3a,6-tetraaza-azulen-5-one], 3.89 nM.
In the case of `CN(C)Cc1nnc2n1C(Cc1ccc(Cl)c(Cl)c1)C(=O)N(Cc1cc(C(F)(F)F)cc(C(F)(F)F)c1)CC2` (racemic) [Example 23, (RS)-6-(3,5-Bis-trifluoromethyl-benzyl)-4-(3,4-dichloro-benzyl)-3-dimethylaminomethyl-7,8-dihydro-6H-1,2,3a,6-tetraaza-azulen-5-one] it was 4.37 nM.
`CN1CCCCC1c1nnc2n1C(Cc1ccc(Cl)c(Cl)c1)C(=O)N(Cc1cc(C(F)(F)F)cc(C(F)(F)F)c1)CC2` (racemic) [Example 24, (RS)-6-(3,5-Bis-trifluoromethyl-benzyl)-4-(3,4-dichloro-benzyl)-3-(1-methyl-piperidin-2-yl)-7,8-dihydro-6H-1,2,3a,6-tetraaza-azulen-5-one]: the Ki was 5.62 nM.
`CCCN=C1CCN(Cc2cc(C(F)(F)F)cc(C(F)(F)F)c2)C(=O)C(Cc2ccc(Cl)c(Cl)c2)N1` (racemic) [Example 26, (RS)-1-(3,5-Bis-trifluoromethyl-benzyl)-3-(3,4-dichloro-benzyl)-5-propylimino-[1,4]diazepan-2-one hydrochloride] showed a Ki of 7.08 nM.
Next, `COc1ccc2ccccc2c1CN1CCC(=O)N[C@@H](Cc2ccc(Cl)c(Cl)c2)C1=O` [Example 15, (3S)-3-(3,4-Dichloro-benzyl)-1-(2-methoxy-naphthalen-1-yl-methyl)-[1,4]diazepane-2,5-dione]: 3.24 nM; `Cc1ccc2ccccc2c1CN1CCC(=O)N[C@@H](Cc2ccc(Cl)c(Cl)c2)C1=O` [Example 16, (3S)-3-(3,4-Dichloro-benzyl)-1-(2-methyl-naphthalen-1-yl-methyl)-[1,4]diazepane-2,5-dione]: 3.8 nM; `COc1ccc2ccccc2c1CN1CCc2nncn2[C@@H](Cc2ccc(Cl)c(Cl)c2)C1=O` [Example 19, (4S)-4-(3,4-Dichloro-benzyl)-6-(2-methoxy-naphthalen-1-yl-methyl)-7,8-dihydro-6H-1,2,3a,6-tetraaza-azulen-5-one]: 1.74 nM.
